Laboratory results published in patent publication US20250188068A1, “AMIDO CYCLOPROPYL DERIVATIVES AS LPA RECEPTOR INHIBITORS” (CHIESI FARMACEUTICI S.P.A., priority 2022, published 2025).

Columns and labels:
[1] = molecular target: T1, human recombinant LPA1 expressed in CHO cells (Homo sapiens, UniProt Q92633); experiment: FLIPR calcium mobilization assay, LPA1 antagonism in CHO-hLPA1 cells; assay type: cell-based; conditions: inhibition of LPA EC80 Ca2+ response, 30 min pre-incubation, range of activity
T1 construct: expressed in transfected cells; host or cells: CHO cells (CHO-hLPA1 cell line)
T1 sequence (Q92633 whole entry): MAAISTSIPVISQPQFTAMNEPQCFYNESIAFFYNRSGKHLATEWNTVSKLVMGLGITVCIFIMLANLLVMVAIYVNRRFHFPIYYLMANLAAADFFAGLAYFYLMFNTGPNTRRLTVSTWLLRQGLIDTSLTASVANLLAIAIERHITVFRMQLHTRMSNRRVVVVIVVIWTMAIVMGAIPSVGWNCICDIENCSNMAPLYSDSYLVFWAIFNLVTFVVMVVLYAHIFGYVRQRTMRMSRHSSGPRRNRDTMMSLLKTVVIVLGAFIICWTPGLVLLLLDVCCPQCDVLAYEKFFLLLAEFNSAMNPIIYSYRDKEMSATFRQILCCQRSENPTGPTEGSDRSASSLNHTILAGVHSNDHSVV
Protocol: The effectiveness of compounds of the present invention as LPA1 antagonist can be determined at the human recombinant LPA1 expressed in CHO cells, using a FLIPR assay in 384 well format.
CHO-hLPA1 cell lines are cultured in a humidified incubator at 5% CO2 in DMEM/F-12 (1:1) MIXTURE with 2 mM Glutamax, supplemented with 10% of Foetal Bovine Serum, 1 mM Sodium Pyruvate, 11 mM Hepes and 1× Penicillin/Streptomycin. CHO hLPA1 cells are seeded into black walled clear-bottom 384-well plates (#781091, Greiner Bio-One GmbH) at a density of 7,500 cells per well in 50 μl culture media and grown overnight in a 37° C. humidified CO2-incubator. Serial dilutions (1:3 or 1:4, 11 points CRC) of compounds are performed in 100% DMSO at 200× the final concentration. The compounds are diluted 1:50 prior to the experiment with Assay Buffer (20 mM HEPES, 145 mM NaCl, 5 mM KCl, 5.5 mM glucose, 1 mM MgCl2 and 2 mM CaCl2), pH 7.4 containing 0.01% Pluronic F-127) to obtain a solution corresponding to […] the final concentration in the assay (4×, 2% DMSO). The final concentration of DMSO in the assay will be 0.5% in each well. Medium is removed by aspiration and cells are then incubated with 30 μl of a loading solution containing 5 μM of the cytoplasmic Ca2+ indicator Cal-520 AM in Assay Buffer containing 2.5 mM probenecid for 30 min at 37° C. incubator (cell loading). The loaded cell plates are transferred into the FLIPR instrument and calcium responses are monitored during the on-line addition protocols. For testing of compounds, after the cell loading, 10 μl/well of 4× antagonists' solution was added onto the cells. After 30 min pre-incubation (at 37° C.), 10 μl/well of 5× concentrated LPA EC80 was added and Ca2+ mobilization responses was followed during the on-line addition protocol. Intracellular peak fluorescence values subtracted by baseline fluorescence are exported and analysed to determine IC50 values, respectively. The calcium response is expressed as percentage of the maximal inhibition of the EC80 agonist response.
The raw data obtained in unstimulated controls (DMSO, no LPA) are set as “100% inhibition”, while the raw data obtained in negative controls, i.e. in the absence of compounds and stimulating with LPA EC80, are set as “0% inhibition”.
The raw data (peak height expressed as relative fluorescence units) are normalized and transformed into “percent of inhibition”. Curve fitting and pIC50 (−Log IC50) estimations are carried out using a four-parameter logistic model using XLfit Software.

[2] = system: Caco-2 cells monolayers (human colon carcinoma cell line); conditions: Caco-2, 60 min, 10 μM, pH 7.4
Protocol: The permeability of the compounds of the present invention was evaluated performing the assay on Caco-2 cells monolayers (human colon carcinoma cell line) by measuring the transport of compound (absorption and secretion) in both directions: apical to basolateral direction (AtoB) and basolateral to apical (BtoA) with and without P-gp inhibitor (Elacridar).
Caco 2 cells were kept in culture using MEM containing 20% FBS, 1 mM Sodium Pyruvate, 2 mM Glutamine and Pen/Strep. […]
Monolayer integrity of Caco-2 cells was evaluated before and after the experiment with TEER measurements using a Millicell ERS meter (Electrical Resistance System, from Millipore) and after the experiment using the paracellular permeability marker Lucifer yellow. […]
Test compound transport was measured in two directions (apical to basolateral [AtoB] and basolateral to apical [BtoA]) in HBSS (Hank's Balanced Salt Solution) transport buffer at pH 7.4 (n=3). […]
The permeability coefficients (Papp) in both directions: apical to basolateral (AtoB) and basolateral to apical (BtoA) with and without P-gp inhibitor (Elacridar) was calculated in nm/sec, using the following equation: […]

| Compound | IC50 [1] | Passive Permeability [2] |
| --- | --- | --- |
| Cc1nc(-c2onc(C)c2CNc2nccc(-c3cccnc3)n2)ccc1NC(=O)[C@@H]1[C@@H](C(=O)O)C1(F)F [Compound 25, (1S,3S)-2,2-difluoro-3-((2-methyl-6-(3-methyl-4-(((4-(pyridin-3-yl)pyrimidin-2-yl)amino)methyl)isoxazol-5-yl)pyridin-3-yl)carbamoyl)cyclopropane-1-carboxylic acid] | < 50 nM | – |
| C[C@@H](OC(=O)Nc1c(-c2ccc(NC(=O)[C@@H]3[C@@H](C(=O)O)C3(F)F)cc2)nnn1C)c1ccccc1Cl [Compound 35, (1S,3S)-3-((4-(5-((((R)-1-(2-chlorophenyl)ethoxy)carbonyl)amino)-1-methyl-1H-1,2,3-triazol-4-yl)phenyl)carbamoyl)-2,2-difluorocyclopropane-1-carboxylic acid] | < 50 nM | – |
| C[C@@H](OC(=O)Nc1cn(C)nc1-c1ccc(NC(=O)[C@@H]2[C@@H](C(=O)O)C2(F)F)cc1)c1ccccc1Cl [Compound 38, (1S,3S)-3-((4-(4-((((R)-1-(2-chlorophenyl)ethoxy)carbonyl)amino)-1-methyl-1H-pyrazol-3-yl)phenyl)carbamoyl)-2,2-difluorocyclopropane-1-carboxylic acid] | 100 to 200 nM | – |
| C[C@@H](OC(=O)Nc1cccn1-c1ccc(NC(=O)[C@@H]2[C@@H](C(=O)O)C2(F)F)cc1)c1ccccc1Cl [Compound 39] | 100 to 200 nM | – |
| C[C@@H](OC(=O)Nc1ncoc1-c1ccc(NC(=O)[C@@H]2[C@@H](C(=O)O)C2(F)F)cc1)c1ccccc1Cl [Compound 40, methyl (1S,3S)-3-((4-(4-((((R)-1-(2-chlorophenyl)ethoxy)carbonyl)amino)oxazol-5-yl)phenyl)carbamoyl)-2,2-difluorocyclopropane-1-carboxlic acid] | 100 to 200 nM | – |
| Cc1nc(-c2onc(C)c2NC(=O)O[C@H](C)c2ccccc2Cl)ccc1NC(=O)C1C(c2noc(=S)[nH]2)C1(F)F (stereo partly drawn) [Compound 41, (R)-1-(2-chlorophenyl)ethyl (5-(5-(2,2-difluoro-3-(5-thioxo-4,5-dihydro-1,2,4-oxadiazol-3-yl)cyclopropane-1-carboxamido)-6-methylpyridin-2-yl)-3-methylisoxazol-4-yl)carbamate] | < 50 nM | – |
| Cc1nc(-c2onc(C)c2NC(=O)O[C@H](C)c2ccccc2Cl)ccc1NC(=O)C1C(c2noc(=O)[nH]2)C1(F)F (stereo partly drawn) [Compound 42, (R)-1-(2-chlorophenyl)ethyl (5-(5-(2,2-difluoro-3-(5-oxo-4,5-dihydro-1,2,4-oxadiazol-3-yl)cyclopropane-1-carboxamido)-6-methylpyridin-2-yl)-3-methylisoxazol-4-yl)carbamate] | < 50 nM | ≤0.5 ×10⁻⁶ cm/s |
| Cc1nc(-c2onc(C)c2NC(=O)O[C@H](C)c2ccccc2Cl)ccc1NC(=O)C1C(c2nsc(=O)[nH]2)C1(F)F (stereo partly drawn) [Compound 43, (R)-1-(2-chlorophenyl)ethyl (5-(5-(2,2-difluoro-3-(5-oxo-4,5-dihydro-1,2,4-thiadiazol-3-yl)cyclopropane-1-carboxamido)-6-methylpyridin-2-yl)-3-methylisoxazol-4-yl)carbamate] | < 50 nM | – |
| Cc1nc(-c2onc(C)c2NC(=O)O[C@H](C)c2ccccc2Cl)ccc1NC(=O)[C@@H]1[C@@H](c2n[nH]c(=S)n2C)C1(F)F [Compound 44, (R)-1-(2-chlorophenyl)ethyl (5-(5-((1S,3S)-2,2-difluoro-3-(4-methyl-5-thioxo-4,5-dihydro-1H-1,2,4-triazol-3-yl)cyclopropane-1-carboxamido)-6-methylpyridin-2-yl)-3-methylisoxazol-4-yl)carbamate] | 50 to 100 nM | – |
